In US7268209B2, “Peptides, derivates thereof, process for producing the same, novel strain producing the same, and antiviral agent comprising the same as active ingredient” (Toyo Suisan Kaisha, Ltd., priority 2001, dated 2007):
Where a SMILES comes first, the peptide text is derived from it. Bridges are numbered along the chain shown (N, C = ends). [ ]: non-standard residue; d: D form. The star is where a group is joined. ξ: configuration not given here. Decanoyl(3ξ-OH) = CCCCCCCC(O)CC(=O)*; X1 = CCCCCC/C=C/CC(O)CC(=O)*; Dab = NCC[CH](N)C(=O)O

Assays:
hepatitis C virus (HCV) = type: cell-based; conditions: summary of Table 14
Protocol: Using the present peptides MA026, BTI-MA026 and R2MA026 as objects, the antiviral effect against hepatitis C virus (HCV) was examined. The experiments were conducted according to the method of Mizutani et al. (Biochem. Biophys. Res. Commun. 227, 822-826, 1996) under supervision of Dr. Kunitada Shimotohno at Institute for Viral Research, Kyoto University. • (1) 1×10^6 gene titer per 0.1 mL of HCV was infected with 1×10^6 MT-2C cells per 1 mL, and cultured at 32° C. for 4 days. • (2) The infected cells of (1) were divided (10^5 cells per well) into a 96-well plate and incubated at 32° C. for 1 day. • (3) Each of the present peptides was added to each well so that the concentration thereof became 1 μM and 5 μM, and incubated at 32° C. for further 2 days. • (4) RNA was extracted from the test cells, and after synthesized cDNA with a reverse transcriptase, PCR of first and second round were performed to detect the HCV gene. • (5) The inhibition effect against HCV was evaluated by comparing fluorescence intensities of the PCR products originated from the HCV infected cells to which the test sample was added, assuming the fluorescence intensity of the PCR product originated from the infected cells to which no test substance was added, to be 100%.

IHNV HV7601 strain = experiment: Antiviral activity by plaque reduction, IHNV in CHSE-214 cells; type: cell-based, infectious hematopoietic necrosis virus (IHNV) in salmonid; conditions: decrease in number of plaques, sample and virus pre-incubated at 10° C. for 2 hours
Protocol: (§1) Evaluation of the antiviral activity was conducted by the same method as described by Burke et al. (Appln. Env. Microbiol., 29, 872-876, 1980) except for the following partial modification. • (1) A sample to be measured for its antiviral activity is dissolved in dimethyl sulfoxide (DMSO) and then diluted with Hank's solution. • (2) 0.2 mL each of the diluted solution in (1) and a viral solution (IHNV HV7601 strain; 100 to 200 PFU/sample) diluted with Hank's solution are mixed and incubated at 10° C. for 2 hours. • (3) After the incubation in (2), the sample is inoculated for 30 minutes in CHSE-214 cells previously cultured for 24 hours in a 24-well cell culture plate. • (4) The sample is removed from each well, and an MEM medium containing. 0.8% methyl cellulose is overlaid on the cells and cultured for 7 days. • (5) The cells on the culture plate are fixed in 3.7% aqueous formalin, and after staining with 1% Crystal Violet, the number of plaques is counted. • (6) The antiviral activity is expressed in terms of the decrease in the number of plaques, relative to that decrease on wells to which the sample was not added. (Composition of the Medium) • a) 5.00 g polypeptone, 2.50 g meat extract, 2.50 g yeast extract, 0.20 g K2HPO4, 0.05 g MgSO4, 1.00 g glucose, 5.00 g NaCl, 1000 mL distilled water, pH 7.5, which were autoclaved at 121° C. for 15 minutes. • b) 15.00 g agar for microorganisms is added to a).
In the following examples, the evaluation of the antiviral activity was conducted in the method described above.
(§2) The antiviral activities of the present peptide MA026 against infectious hematopoietic necrosis virus (IHNV) in salmonid, rhabdovirus (EVA) in American eels and rhabdovirus (EVEX) in European eels were measured according to the method described in Example 1.

[1] = system: white spot syndrome virus (WSSV); experiment: Antiviral effect against shrimp virus: injection of peptide-treated WSSV into shrimp; type: in vivo, Penaeus monodon (black tiger shrimp); conditions: WSSV mixed with equal volume of 100 μg/mL peptide solution, 25° C. 1 hour, 0.1 mL intramuscular; observed 2 weeks; 10 shrimps per group
Protocol: Penaeus monodon (black tiger shrimp) weighing about 20 g were divided at random into groups each consisting of 10 shrimps and raised separately. A viral culture fluid prepared by diluting the white spot syndrome virus (WSSV LD50 value; 10^−3.6) 2000-fold with Hank's solution was mixed with an equal volume of a diluted solution (100 μg/mL) of the present peptides MA026 and BTI-MA026. After the mixture was incubated at 25° C. for 1 hour, the solution was intramuscularly injected at a dose of 0.1 mL into each shrimp, for viral inoculation. Whether the shrimps were actually inoculated with the virus or not was determined by observing them for 2 weeks after viral infection, and pathologically examining the ones that dies. The lesion tissues were examined to detect the viral gene by the PCR method. In the control group, Hank's solution only was used.

[2] = system: rhabdovirus (EVEX) in European eels; experiment: Antiviral activity by plaque reduction, EVEX; type: cell-based; conditions: method of Example 1, decrease in number of plaques
Protocol: as §1, with “(Composition of the Medium) • a) 5.00 g polypeptone, 2.50 g meat extract, 2.50 g yeast extract, 0.20 g K2HPO4, 0.05 g MgSO4, 1.00 g glucose, 5.00 g NaCl, 1000 mL distilled water, pH 7.5, which were autoclaved at 121° C. for 15 minutes. • b) 15.00 g agar for microorganisms is added to a).” left out
as §2

[3] = system: rhabdovirus (EVA) in American eels; experiment: Antiviral activity by plaque reduction, EVA; type: cell-based; conditions: method of Example 1, decrease in number of plaques
Protocol: as §1, with “(Composition of the Medium) • a) 5.00 g polypeptone, 2.50 g meat extract, 2.50 g yeast extract, 0.20 g K2HPO4, 0.05 g MgSO4, 1.00 g glucose, 5.00 g NaCl, 1000 mL distilled water, pH 7.5, which were autoclaved at 121° C. for 15 minutes. • b) 15.00 g agar for microorganisms is added to a).” left out
as §2

Row | SMILES | proliferation of hepatitis C virus (hepatitis C virus (HCV)) | antiviral activity against IHNV (IHNV HV7601 strain) | dead shrimp after inoculation with WSSV [1] | antiviral activity against EVEX [2] | antiviral activity against EVA [3]
1 | CCCCCC/C=C/CC(O)CC(=O)NC(CC(C)C)C(=O)NC(CCC(=O)O)C(=O)NC(CCC(N)=O)C(=O)NC(C(=O)NC(CC(C)C)C(=O)NC(CCC(N)=O)C(=O)NC1COC(=O)C(C(C)CC)NC(=O)C(CCC(N)=O)NC(=O)C(CC(C)C)NC(=O)C(CCC(N)=O)NC(=O)C(CC(C)C)NC(=O)C(CC(C)C)NC(=O)C(C(C)C)NC1=O)C(C)C (stereo not drawn) [R2MA026] (X1-LEQVLQSVLLQLQI; ester 7-C; configuration not given here) | inhibited | confirmed | – | – | –
2 | CCCCCCCC(O)CC(=O)NC(CC(C)C)C(=O)NC(CCC(=O)O)C(=O)NC(CCN)C(=O)NC(C(=O)NC(CC(C)C)C(=O)NC(CCN)C(=O)NC1COC(=O)C(C(C)CC)NC(=O)C(CCN)NC(=O)C(CC(C)C)NC(=O)C(CCN)NC(=O)C(CC(C)C)NC(=O)C(CC(C)C)NC(=O)C(C(C)C)NC1=O)C(C)C (stereo not drawn) [BTI-MA026] ({Decanoyl(3ξ-OH)}-LE[Dab]VL[Dab]SVLL[Dab]L[Dab]I; ester 7-C; configuration not given here) | inhibited | confirmed | no dead shrimp | – | –
3 | CCCCCCCC(O)CC(=O)NC(CC(C)C)C(=O)NC(CCC(=O)O)C(=O)NC(CCC(N)=O)C(=O)NC(C(=O)NC(CC(C)C)C(=O)NC(CCC(N)=O)C(=O)NC1COC(=O)C(C(C)CC)NC(=O)C(CCC(N)=O)NC(=O)C(CC(C)C)NC(=O)C(CCC(N)=O)NC(=O)C(CC(C)C)NC(=O)C(CC(C)C)NC(=O)C(C(C)C)NC1=O)C(C)C (stereo not drawn) [MA026] ({Decanoyl(3ξ-OH)}-LEQVLQSVLLQLQI; ester 7-C; configuration not given here) | inhibited | high antiviral activity | no dead shrimp | high antiviral activity | high antiviral activity
4 | CCCCCCCC(O)CC(=O)NC(CC(C)C)C(=O)NC(CCC(=O)O)C(=O)NC(CCC(N)=O)C(=O)NC(C(=O)NC(CC(C)C)C(=O)NC(CCC(N)=O)C(=O)NC1COC(=O)C(CC(C)C)NC(=O)C(CCC(N)=O)NC(=O)C(CC(C)C)NC(=O)C(CCC(N)=O)NC(=O)C(CC(C)C)NC(=O)C(C(C)C)NC(=O)C(C(C)C)NC1=O)C(C)C (stereo not drawn) [R1MA026] ({Decanoyl(3ξ-OH)}-LEQVLQSVVLQLQL; ester 7-C; configuration not given here) | – | confirmed | – | – | –
5 | CCCCCCCC(O)CC(=O)NC(CC(C)C)C(=O)NC(CCC(=O)O)C(=O)NC(CCN)C(=O)NC(C(=O)NC(CC(C)C)C(=O)NC(CCN)C(=O)NC(CO)C(=O)NC(C(=O)NC(CC(C)C)C(=O)NC(CC(C)C)C(=O)NC(CCN)C(=O)NC(CC(C)C)C(=O)NC(CCN)C(=O)NC(C(=O)O)C(C)CC)C(C)C)C(C)C (stereo not drawn) [BTI-base MA026] ({Decanoyl(3ξ-OH)}-LE[Dab]VL[Dab]SVLL[Dab]L[Dab]I-OH; configuration not given here) | – | confirmed | – | – | –
